From ChEMBL document CHEMBL1201862, “PubChem BioAssay data set” (2004)
Activity calls are given as the source filed them. For most assays here, no stated cut-off is given here; in the data, actives have a measured EC50 and inactives only a lower limit.

Experiments:
[1] = target: Peroxisome proliferator-activated receptor gamma/Nuclear receptor corepressor 2 (Homo sapiens, UniProt P37231+Q9Y618); assay type: functional
[2] = inhibitors of firefly luciferase expression or activity, dose response, H4 neuroglioma cells, luminescence (AID 1990); assay type: functional, cell-based
[3] = inhibitors of SNCA 5'UTR-driven reporter translation, confirmation, H4 neuroglioma cells, luminescence (AID 1988); assay type: functional, cell-based
[4] = cytotoxicity toward NIH3T3 fibroblasts, dose response, counter-screen, cell-based, ATP luminescence, mouse fibroblasts (AID 2010); assay type: functional;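 further: cells exposed to compound for about 90 hours before reading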
[5] = target: Caspase-8 (Homo sapiens, UniProt Q14790); test: caspase-8 inhibition counter-screen, dose response, selectivity assay for caspase-6 inhibitor project, biochemical, Z-IETD-R110 fluorescence, cherry-picked samples (AID 743294)
[6] = target: Caspase-7 (Homo sapiens, UniProt P55210); test: human caspase-7 inhibitors, dose response, selectivity assay for caspase-6 inhibitor project, biochemical, DEVD-R110 fluorescence, cherry-pick (AID 743295)
[7] = target: T1, Mannose-6-phosphate isomerase (Homo sapiens, UniProt P34949); test: human PMI inhibitors, high substrate, primary screen, biochemical, fluorescence intensity, high mannose 6-phosphate (AID 1220)
T1 sequence (P34949 whole entry): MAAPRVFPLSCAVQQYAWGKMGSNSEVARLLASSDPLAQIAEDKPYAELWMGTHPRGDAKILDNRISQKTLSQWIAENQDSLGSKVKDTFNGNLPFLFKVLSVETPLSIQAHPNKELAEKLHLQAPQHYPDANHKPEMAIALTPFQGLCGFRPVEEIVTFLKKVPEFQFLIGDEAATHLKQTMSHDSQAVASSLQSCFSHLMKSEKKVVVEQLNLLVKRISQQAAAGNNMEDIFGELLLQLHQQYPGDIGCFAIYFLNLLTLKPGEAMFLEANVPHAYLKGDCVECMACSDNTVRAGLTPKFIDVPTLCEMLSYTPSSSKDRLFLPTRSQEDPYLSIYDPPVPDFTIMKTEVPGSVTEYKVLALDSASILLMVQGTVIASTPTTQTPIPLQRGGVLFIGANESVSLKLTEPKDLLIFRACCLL

[8] = target: T2, Heat shock factor protein 1 (Mus musculus, UniProt P38532); test: HSF1 potentiators in luciferase reporter cells, confirmation, cell-based, NIH3T3, luminescence, dose retest (AID 435004); assay type: functional;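 further: stress induced by proteasome inhibitor MG132 added 30 min after compound; luciferase reporter driven by HSF1 response element in NIH3T3 cells; actives raise luminescence as potentiators of the MG132 stress response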
T2 sequence (P38532 whole entry): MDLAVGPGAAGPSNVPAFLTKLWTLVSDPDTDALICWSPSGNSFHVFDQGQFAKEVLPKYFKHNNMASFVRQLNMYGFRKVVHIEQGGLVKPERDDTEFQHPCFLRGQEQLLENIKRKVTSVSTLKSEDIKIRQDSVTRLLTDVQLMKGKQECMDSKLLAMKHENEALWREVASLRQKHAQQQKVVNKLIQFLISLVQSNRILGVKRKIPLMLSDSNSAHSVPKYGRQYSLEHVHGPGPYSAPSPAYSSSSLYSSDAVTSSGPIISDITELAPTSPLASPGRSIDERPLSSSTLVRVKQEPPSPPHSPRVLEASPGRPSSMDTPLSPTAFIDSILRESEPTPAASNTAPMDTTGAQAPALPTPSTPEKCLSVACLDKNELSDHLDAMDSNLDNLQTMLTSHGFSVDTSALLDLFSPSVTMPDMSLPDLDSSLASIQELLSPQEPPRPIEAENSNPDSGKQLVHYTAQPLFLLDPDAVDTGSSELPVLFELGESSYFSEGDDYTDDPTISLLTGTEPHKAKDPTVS

[9] = target: T3, Rac GTPase-activating protein 1 (Homo sapiens, UniProt Q9H0H5); test: MgcRacGAP GTPase-activating activity inhibitors, confirmation, biochemical, ADP Hunter fluorescence, primary and confirmatory (AID 624330); assay type: functional
T3 sequence (Q9H0H5 whole entry): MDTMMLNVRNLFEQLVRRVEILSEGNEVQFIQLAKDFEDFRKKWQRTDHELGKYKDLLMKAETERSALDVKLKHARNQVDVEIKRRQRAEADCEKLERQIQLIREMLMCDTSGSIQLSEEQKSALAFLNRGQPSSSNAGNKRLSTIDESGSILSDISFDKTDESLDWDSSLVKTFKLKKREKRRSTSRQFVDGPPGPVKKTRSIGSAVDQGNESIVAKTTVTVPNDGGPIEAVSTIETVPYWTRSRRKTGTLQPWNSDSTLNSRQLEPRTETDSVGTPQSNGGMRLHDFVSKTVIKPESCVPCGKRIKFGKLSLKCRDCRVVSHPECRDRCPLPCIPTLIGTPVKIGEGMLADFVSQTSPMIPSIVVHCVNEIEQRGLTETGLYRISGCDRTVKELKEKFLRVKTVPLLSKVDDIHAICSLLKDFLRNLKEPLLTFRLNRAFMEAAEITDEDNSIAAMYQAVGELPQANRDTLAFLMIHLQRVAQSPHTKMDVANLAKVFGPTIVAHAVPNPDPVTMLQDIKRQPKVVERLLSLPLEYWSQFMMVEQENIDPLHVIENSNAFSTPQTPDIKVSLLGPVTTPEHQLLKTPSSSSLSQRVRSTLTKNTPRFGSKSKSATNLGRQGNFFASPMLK

[10] = C. albicans growth with fluconazole, confirmation, fluorescence, retest (AID 2467); assay type: functional, cell-based
[11] = cells; assay type: functional, cell-based
[12] = target: ATP-dependent molecular chaperone HSP82 (Candida albicans (strain WO-1) (Yeast), UniProt C4YTQ8); test: loss of DOC-induced GRE-beta-galactosidase reporter signal, dose response, Hsp90 inhibitor project, S. cerevisiae, luminescence (AID 2400); assay type: functional, cell-based;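 further: beta-galactosidase luminescence from glucocorticoid response element reporter as proxy for Hsp90 function; inhibitor potency where signal loss means Hsp90 inhibition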
[13] = cytotoxicity in HEK-293T cells, dose response, cytotoxicity control for TCR NF-kB inhibitor project, luminescence, T-cell screen hits (AID 489026); assay type: functional, cell-based;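 further: cells exposed to compound about 14 hours before the viability readout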
[14] = cells; assay type: functional
[15] = tested on: BJ; test: cytotoxicity toward BJ-TERT-LT-ST fibroblasts, dose response, cell-based, RAS-independent, luminescence (AID 1935); assay type: functional; conditions: Homo sapiens;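 further: BJ fibroblasts immortalized with TERT plus LT and ST oncogenes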
[16] = Vero E6 cell cytotoxicity, dose response, cytotoxicity control for non-replicating M. tuberculosis project, secondary assay (AID 492998); assay type: functional, VeroE6; conditions: Vero C1008
[17] = tested on: BJ; test: cells; assay type: functional, cell-based; conditions: Homo sapiens

Peroxisome proliferator-activated receptor gamma/Nuclear receptor corepressor 2, sequence (P37231 whole entry): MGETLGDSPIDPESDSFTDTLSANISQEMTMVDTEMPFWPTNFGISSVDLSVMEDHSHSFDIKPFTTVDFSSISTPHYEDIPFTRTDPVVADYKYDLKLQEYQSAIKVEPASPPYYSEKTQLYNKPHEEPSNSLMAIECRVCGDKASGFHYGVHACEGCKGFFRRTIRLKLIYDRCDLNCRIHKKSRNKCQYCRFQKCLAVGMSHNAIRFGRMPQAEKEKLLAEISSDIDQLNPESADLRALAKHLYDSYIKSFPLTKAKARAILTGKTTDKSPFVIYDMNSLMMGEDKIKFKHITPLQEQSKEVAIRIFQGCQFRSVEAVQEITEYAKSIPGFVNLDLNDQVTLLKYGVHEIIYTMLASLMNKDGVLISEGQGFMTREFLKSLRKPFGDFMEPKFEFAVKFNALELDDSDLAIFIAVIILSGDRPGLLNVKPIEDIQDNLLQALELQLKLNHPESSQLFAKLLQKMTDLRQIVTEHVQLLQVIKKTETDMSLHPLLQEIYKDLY
Peroxisome proliferator-activated receptor gamma/Nuclear receptor corepressor 2, sequence (Q9Y618 whole entry): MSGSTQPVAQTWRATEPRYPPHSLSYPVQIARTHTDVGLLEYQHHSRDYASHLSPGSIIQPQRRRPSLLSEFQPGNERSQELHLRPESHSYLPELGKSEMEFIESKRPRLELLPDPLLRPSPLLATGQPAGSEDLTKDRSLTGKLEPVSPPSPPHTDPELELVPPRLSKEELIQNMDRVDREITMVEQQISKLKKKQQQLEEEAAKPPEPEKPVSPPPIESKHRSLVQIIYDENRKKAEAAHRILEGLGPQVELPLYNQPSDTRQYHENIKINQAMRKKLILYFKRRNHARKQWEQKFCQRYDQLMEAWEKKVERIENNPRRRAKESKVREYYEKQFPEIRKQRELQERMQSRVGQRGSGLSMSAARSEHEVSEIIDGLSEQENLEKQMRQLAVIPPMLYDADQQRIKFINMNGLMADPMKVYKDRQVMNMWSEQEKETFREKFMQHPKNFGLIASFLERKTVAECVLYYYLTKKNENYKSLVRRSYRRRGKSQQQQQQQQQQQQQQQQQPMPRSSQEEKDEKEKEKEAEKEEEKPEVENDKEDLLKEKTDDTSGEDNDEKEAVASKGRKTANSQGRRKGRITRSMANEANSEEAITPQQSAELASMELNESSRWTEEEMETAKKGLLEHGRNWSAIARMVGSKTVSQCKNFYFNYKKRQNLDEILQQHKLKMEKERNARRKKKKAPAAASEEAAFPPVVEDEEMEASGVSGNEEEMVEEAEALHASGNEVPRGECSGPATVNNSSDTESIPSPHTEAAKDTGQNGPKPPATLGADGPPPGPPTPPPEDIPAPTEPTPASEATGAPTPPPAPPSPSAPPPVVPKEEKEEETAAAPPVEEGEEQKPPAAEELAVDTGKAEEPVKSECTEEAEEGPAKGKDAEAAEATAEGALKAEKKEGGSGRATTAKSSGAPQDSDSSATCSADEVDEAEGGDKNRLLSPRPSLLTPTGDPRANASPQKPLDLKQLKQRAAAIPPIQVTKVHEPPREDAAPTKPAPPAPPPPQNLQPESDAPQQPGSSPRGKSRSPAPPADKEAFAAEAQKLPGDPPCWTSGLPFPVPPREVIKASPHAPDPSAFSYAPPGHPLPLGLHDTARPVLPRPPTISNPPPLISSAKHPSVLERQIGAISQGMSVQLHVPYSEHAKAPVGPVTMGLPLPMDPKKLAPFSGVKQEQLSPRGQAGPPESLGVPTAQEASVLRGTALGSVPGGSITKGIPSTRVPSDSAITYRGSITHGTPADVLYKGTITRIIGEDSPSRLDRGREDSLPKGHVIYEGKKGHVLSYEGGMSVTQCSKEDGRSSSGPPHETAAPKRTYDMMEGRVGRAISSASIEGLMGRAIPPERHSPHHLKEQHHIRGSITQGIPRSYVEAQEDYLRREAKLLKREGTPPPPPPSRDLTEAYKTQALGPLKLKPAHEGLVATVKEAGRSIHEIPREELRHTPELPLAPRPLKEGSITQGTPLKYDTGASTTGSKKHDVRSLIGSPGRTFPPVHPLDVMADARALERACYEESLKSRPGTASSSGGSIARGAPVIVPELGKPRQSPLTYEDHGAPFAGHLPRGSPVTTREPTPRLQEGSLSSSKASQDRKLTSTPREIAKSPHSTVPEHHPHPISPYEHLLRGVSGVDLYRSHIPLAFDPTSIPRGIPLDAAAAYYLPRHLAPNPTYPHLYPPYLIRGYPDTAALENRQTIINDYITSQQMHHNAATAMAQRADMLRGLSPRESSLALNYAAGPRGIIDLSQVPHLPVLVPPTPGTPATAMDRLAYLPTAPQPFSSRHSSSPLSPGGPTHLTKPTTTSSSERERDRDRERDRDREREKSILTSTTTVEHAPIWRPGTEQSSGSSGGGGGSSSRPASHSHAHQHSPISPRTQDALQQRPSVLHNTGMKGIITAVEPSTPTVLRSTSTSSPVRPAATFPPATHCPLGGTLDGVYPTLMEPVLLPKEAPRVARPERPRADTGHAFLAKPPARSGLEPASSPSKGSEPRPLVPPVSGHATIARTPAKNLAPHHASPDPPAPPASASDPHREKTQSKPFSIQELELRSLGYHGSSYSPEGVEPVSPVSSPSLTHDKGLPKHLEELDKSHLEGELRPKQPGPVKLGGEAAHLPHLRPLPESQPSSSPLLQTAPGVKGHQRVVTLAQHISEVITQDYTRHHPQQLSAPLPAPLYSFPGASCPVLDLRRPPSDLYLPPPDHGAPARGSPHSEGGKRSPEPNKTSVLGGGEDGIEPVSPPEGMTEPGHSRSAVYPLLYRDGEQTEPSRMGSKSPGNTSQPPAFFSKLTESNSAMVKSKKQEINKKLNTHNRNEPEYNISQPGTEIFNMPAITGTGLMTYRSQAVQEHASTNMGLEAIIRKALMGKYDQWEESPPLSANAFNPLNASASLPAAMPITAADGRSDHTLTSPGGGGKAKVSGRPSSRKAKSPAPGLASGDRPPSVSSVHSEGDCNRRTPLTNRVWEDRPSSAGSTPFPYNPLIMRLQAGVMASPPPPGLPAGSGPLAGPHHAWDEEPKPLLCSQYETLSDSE
Caspase-8, sequence (Q14790 217-374 limits assumed): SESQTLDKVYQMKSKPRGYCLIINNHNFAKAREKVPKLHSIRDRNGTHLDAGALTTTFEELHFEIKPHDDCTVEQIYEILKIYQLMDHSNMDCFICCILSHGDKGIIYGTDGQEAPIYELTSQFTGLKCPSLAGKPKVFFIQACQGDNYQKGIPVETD
Caspase-8, sequence (Q14790 385-479 limits assumed): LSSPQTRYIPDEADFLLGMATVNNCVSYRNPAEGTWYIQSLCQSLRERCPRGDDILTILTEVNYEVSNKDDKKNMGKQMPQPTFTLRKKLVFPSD
Caspase-7, sequence (P55210 24-198 limits assumed): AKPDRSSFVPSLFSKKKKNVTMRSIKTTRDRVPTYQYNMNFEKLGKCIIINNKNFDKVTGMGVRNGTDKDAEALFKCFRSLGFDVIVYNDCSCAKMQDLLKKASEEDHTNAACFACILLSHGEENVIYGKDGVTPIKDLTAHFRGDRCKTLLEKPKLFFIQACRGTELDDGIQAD
Caspase-7, sequence (P55210 207-303 limits assumed): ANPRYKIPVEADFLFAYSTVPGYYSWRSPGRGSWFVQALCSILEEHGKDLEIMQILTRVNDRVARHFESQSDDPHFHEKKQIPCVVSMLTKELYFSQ
ATP-dependent molecular chaperone HSP82, sequence (C4YTQ8 whole entry): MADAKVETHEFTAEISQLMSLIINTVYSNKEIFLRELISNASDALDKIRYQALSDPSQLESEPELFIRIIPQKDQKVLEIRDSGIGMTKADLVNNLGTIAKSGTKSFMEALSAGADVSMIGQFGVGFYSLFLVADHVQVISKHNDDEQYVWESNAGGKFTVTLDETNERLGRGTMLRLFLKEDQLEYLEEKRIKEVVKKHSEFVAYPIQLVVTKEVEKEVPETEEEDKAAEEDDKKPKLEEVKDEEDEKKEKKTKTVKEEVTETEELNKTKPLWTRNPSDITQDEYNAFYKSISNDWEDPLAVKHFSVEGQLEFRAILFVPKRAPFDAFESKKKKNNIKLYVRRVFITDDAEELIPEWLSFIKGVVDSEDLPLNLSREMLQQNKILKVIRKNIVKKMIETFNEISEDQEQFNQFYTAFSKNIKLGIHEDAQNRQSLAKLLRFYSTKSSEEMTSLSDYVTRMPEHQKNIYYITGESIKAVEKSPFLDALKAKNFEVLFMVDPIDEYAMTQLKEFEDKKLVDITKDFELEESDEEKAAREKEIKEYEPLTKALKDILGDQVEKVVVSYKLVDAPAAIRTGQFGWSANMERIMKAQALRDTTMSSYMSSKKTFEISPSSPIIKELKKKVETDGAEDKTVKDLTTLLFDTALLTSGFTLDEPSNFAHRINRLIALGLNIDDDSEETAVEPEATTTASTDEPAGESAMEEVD

Cn1nc(-c2ccc(Cl)cc2)nc2c(=O)n(C)c(=O)nc1-2
IC50 [1]: > 4.43 µM (active) | EC50 [2]: 5.59 µM (inconclusive) | EC50 [3]: 4.07 µM (active)

SC1=Nc2ccccc2C1
EC50 [4]: 15.8 µM (active)

NS(=O)(=O)c1ccc(NC(=O)COC(=O)c2ccc([N+](=O)[O-])s2)cc1
AC50 [5]: 20.3 µM (active) | AC50 [6]: > 22 µM (inactive)

CCCCNc1cc(NC(C)=O)cc2cc(OC)c(OC)cc12
IC50 [7]: > 50 µM (not active) | EC50 [8]: > 260 µM (inactive) | IC50 [9]: 39.5 µM (active)

COc1ccc(C(NC(=O)C(C)C)c2ccc3cccnc3c2O)cc1 (configuration not stated)
EC50 [10]: 0.692 µM (active) | EC50 [11]: > 350 µM (not active) | EC50 [12]: 52.4 µM (active) | IC50 [13]: > 80 µM (inactive)

O=C(Cc1ccc([N+](=O)[O-])cc1)N/N=C/c1ccc([N+](=O)[O-])o1
IC50 [14]: 13.2 µM (active) | EC50 [15]: 18.3 µM (active) | CC50 [16]: > 20 µM (active) | EC50 [17]: 15.6 µM (active)
